Test results: patent US8563584B2, “Substituted enaminothiocarbonyl compounds” (Bayer CropScience AG, priority 2008, dated 2013)

Legend:
[1] = system: green peach aphid (Myzus persicae); assay: Myzus test (MYZUPE spray treatment); format: in vivo; settings: application rate of 500 g/ha; spray treatment of infested Chinese cabbage leaf discs, all stages
Description: Myzus Test (MYZUPE Spray Treatment) Solvents: 78 parts by weight of acetone • • 1.5 parts by weight of dimethylformamide Emulsifier: 0.5 part by weight of alkylaryl polyglycol ether To produce a suitable preparation of active compound, 1 part by weight of active compound is mixed with the stated amounts of solvent and emulsifier, and the concentrate is diluted with emulsifier-containing water to the desired concentration. Discs of Chinese cabbage leaves (Brassica pekinensis) which are infested by all stages of the green peach aphid (Myzus persicae) are sprayed with a preparation of active compound of the desired concentration. After the desired period of time, the effect in % is determined 100% means that all aphids have been killed; 0% means that none of the aphids have been killed.

[2] = system: larvae of the mustard beetle (Phaedon cochleariae); assay: Phaedon test (PHAECO spray treatment); format: in vivo; settings: application rate of 500 g/ha; spray treatment of Chinese cabbage leaf discs
Description: Phaedon Test ([…] Spray Treatment) Solvents: 78 parts by weight of acetone • • 1.5 parts by weight of dimethylformamide Emulsifier: 0.5 part by weight of alkylaryl polyglycol ether To produce a suitable preparation of active compound, 1 part by weight of active compound is mixed with the stated amounts of solvent and emulsifier, and the concentrate is diluted with emulsifier-containing water to the desired concentration. Discs of Chinese cabbage leaves (Brassica pekinensis) are sprayed with an active compound preparation of the desired concentration and, after drying, populated with larvae of the mustard beetle (Phaedon cochleariae). After the desired period of time, the effect in % is determined 100% means that all beetle larvae have been killed; 0% means that none of the beetle larvae have been killed.

**Q.** What does the source list for FC(F)CN(Cc1ccc(Cl)nc1)C1=CC(=S)OC1 [Ex. No. 1, 4-{[(6-Chloropyridin-3-yl)methyl](2,2-difluoroethyl)amino}furan-2(5H)-thione]?
**A.** activity (effect in %; 100% means that all aphids have been killed) [1]: ≥ 80%; activity (effect in %; 100% means that all beetle larvae have been killed) [2]: ≥ 80%
